From patent US20260022142A1, “MACROCYCLIC IMMUNOMODULATORS” (Bristol-Myers Squibb Company, priority 2022, published 2026)
Bridge positions count the residues as written; N and C are the ends. Square brackets hold non-standard residues; d marks the D form. Peptide text beside a SMILES is read from it. * marks the point of attachment. Bip = N[C@@H](Cc1ccc(-c2ccccc2)cc1)C(=O)O; Phe(3-Me) = Cc1cccc(C[C@H](N)C(=O)O)c1; Cha = N[C@@H](CC1CCCCC1)C(=O)O; Cit = NC(=O)NCCC[C@H](N)C(=O)O; Pen = CC(C)(S)[C@H](N)C(=O)O; Dap(Me) = CNC[C@H](N)C(=O)O; hCys = N[C@@H](CCS)C(=O)O; Carboxymethyl = O=C(O)C*; NMeA = CN[C@@H](C)C(=O)O; Orn = NCCC[C@H](N)C(=O)O; Aun = NCCCCCCCCCCC(=O)O; Dab = NCC[C@H](N)C(=O)O; Dap = NC[C@H](N)C(=O)O; Aib = CC(C)(N)C(=O)O

Biological target: T1, PD-1/PD-L1 interaction (PE-labeled human PD-L1-Ig binding to Jurkat cell line over-expressing human PD-1) (Homo sapiens, UniProt Q15116)
T1 construct: expressed in transfected cells; host or cells: Jurkat
T1 sequence (Q15116 25-288): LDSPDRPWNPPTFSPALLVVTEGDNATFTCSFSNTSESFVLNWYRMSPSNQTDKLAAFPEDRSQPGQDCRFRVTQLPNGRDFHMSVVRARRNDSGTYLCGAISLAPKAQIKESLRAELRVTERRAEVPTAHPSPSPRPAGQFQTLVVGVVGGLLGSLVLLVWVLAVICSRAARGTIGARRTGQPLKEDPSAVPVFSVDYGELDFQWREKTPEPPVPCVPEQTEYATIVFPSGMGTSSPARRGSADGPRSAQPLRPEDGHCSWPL
Assay: Jurkat-PD-1 Cell Binding High-Content Screening Assay (CBA)
Assay type: cell-based
Conditions: Jurkat cell line over-expressing human PD-1; PE-labeled PD-L1-Ig 20 nM final; read-out: Jurkat hPD1-PDL1 IC50
Summary of the method: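 Human PD-L1-Ig carrying a covalent PE label on its Ig tag serves as the probe, applied at 20 nM final to compound-treated (2 h, 37° C) Jurkat-hPD-1 cells in medium with 10% fetal calf serum. After one hour, fixation and nuclear staining precede high-content image analysis.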

IC50 | SMILES
8.9 nM | Cc1cccc(C[C@@H]2NC(=O)[C@H](CC(=O)O)NC(=O)[C@H](Cc3ccc(OCC(=O)O)cc3)NC(=O)[C@H](CCCNC(=N)N)NC(=O)CSC[C@@H](C(=O)N[C@@H](CCN)C(=O)NCCCCCCCCCCC(=O)O)NC(=O)[C@H](CCC(=O)O)NC(=O)[C@H](C(C)C)NC(=O)[C@H](CC3CCCCC3)NC(=O)[C@H](CCN)NC(=O)[C@@H](CC(C)C)NC(=O)[C@H](CCN)NC(=O)[C@H](CCCNC(N)=O)NC(=O)[C@H](Cc3ccc(-c4ccccc4)cc3)NC(=O)[C@H](C(C)C)NC2=O)c1 [Compound 2778] ({CH2CO}-RY(Carboxymethyl)D[Phe(3-Me)]V[Bip][Cit][Dab][dL][Dab][Cha]VEC[Dab][Aun]-OH; thioether N-14)
6.7 nM | Cc1cccc(C[C@@H]2NC(=O)[C@H](CC(=O)O)NC(=O)[C@H](Cc3ccc(OCC(=O)O)cc3)NC(=O)[C@H](CCCNC(=N)N)NC(=O)CSC[C@@H](C(=O)N[C@@H](CCCN)C(=O)NCCCCCCCCCCC(=O)O)NC(=O)[C@H](CCC(=O)O)NC(=O)[C@H](C(C)C)NC(=O)[C@H](CC3CCCCC3)NC(=O)[C@H](CCN)NC(=O)[C@@H](CC(C)C)NC(=O)[C@H](CCN)NC(=O)[C@H](CCCNC(N)=O)NC(=O)[C@H](Cc3ccc(-c4ccccc4)cc3)NC(=O)[C@H](C(C)C)NC2=O)c1 [Compound 2780] ({CH2CO}-RY(Carboxymethyl)D[Phe(3-Me)]V[Bip][Cit][Dab][dL][Dab][Cha]VEC[Orn][Aun]-OH; thioether N-14)
74.3 nM | Cc1cccc(C[C@@H]2NC(=O)[C@H](CC(=O)O)NC(=O)[C@H](Cc3ccc(OCC(=O)O)cc3)NC(=O)[C@H](CN)NC(=O)CSCC[C@@H](C(=O)N[C@@H](C)C(=O)N[C@@H](CCC(=O)O)C(=O)NCCCCCCCCCCC(=O)O)NC(=O)[C@H]([C@@H](C)O)NC(=O)[C@H](C(C)C)NC(=O)[C@H](CC3CCCCC3)NC(=O)[C@H](CCN)NC(=O)[C@@H](CC(C)C)NC(=O)[C@H](CCCN)NC(=O)[C@H](CCCNC(N)=O)NC(=O)[C@H](Cc3ccc(-c4ccccc4)cc3)NC(=O)[C@H](C(C)C)NC2=O)c1 [Compound 2781] ({CH2CO}-[Dap]Y(Carboxymethyl)D[Phe(3-Me)]V[Bip][Cit][Orn][dL][Dab][Cha]VT[hCys]AE[Aun]-OH; thioether N-14)
336 nM | Cc1cccc(C[C@@H]2NC(=O)[C@H](CC(=O)O)NC(=O)[C@H](Cc3ccc(OCC(=O)O)cc3)NC(=O)[C@H](CN)NC(=O)CSC(C)(C)[C@@H](C(=O)N[C@@H](C)C(=O)N[C@@H](CCC(=O)O)C(=O)NCCCCCCCCCCC(=O)O)NC(=O)[C@H]([C@@H](C)O)NC(=O)[C@H](C(C)C)NC(=O)[C@H](CC3CCCCC3)NC(=O)[C@H](CCN)NC(=O)[C@@H](CC(C)C)NC(=O)[C@H](CCCN)NC(=O)[C@H](CCCNC(N)=O)NC(=O)[C@H](Cc3ccc(-c4ccccc4)cc3)NC(=O)[C@H](C(C)C)NC2=O)c1 [Compound 2782] ({CH2CO}-[Dap]Y(Carboxymethyl)D[Phe(3-Me)]V[Bip][Cit][Orn][dL][Dab][Cha]VT[Pen]AE[Aun]-OH; thioether N-14)
368 nM | Cc1cccc(C[C@@H]2NC(=O)[C@H](CC(=O)O)NC(=O)[C@H](Cc3ccc(OCC(=O)O)cc3)NC(=O)[C@H](CN)NC(=O)CSC[C@@H](C(=O)N(C)[C@@H](C)C(=O)N[C@@H](CCC(=O)O)C(=O)NCCCCCCCCCCC(=O)O)NC(=O)[C@H]([C@@H](C)O)NC(=O)[C@H](C(C)C)NC(=O)[C@H](CC3CCCCC3)NC(=O)[C@H](CCN)NC(=O)[C@@H](CC(C)C)NC(=O)[C@H](CCCN)NC(=O)[C@H](CCCNC(N)=O)NC(=O)[C@H](Cc3ccc(-c4ccccc4)cc3)NC(=O)[C@H](C(C)C)NC2=O)c1 [Compound 2783] ({CH2CO}-[Dap]Y(Carboxymethyl)D[Phe(3-Me)]V[Bip][Cit][Orn][dL][Dab][Cha]VTC[NMeA]E[Aun]-OH; thioether N-14)
21.8 nM | Cc1cccc(C[C@@H]2NC(=O)[C@H](CC(=O)O)NC(=O)[C@H](Cc3ccc(OCC(=O)O)cc3)NC(=O)[C@H](CN)NC(=O)CSC[C@@H](C(=O)NC(C)(C)C(=O)N[C@@H](CCC(=O)O)C(=O)NCCCCCCCCCCC(=O)O)NC(=O)[C@H]([C@@H](C)O)NC(=O)[C@H](C(C)C)NC(=O)[C@H](CC3CCCCC3)NC(=O)[C@H](CCN)NC(=O)[C@@H](CC(C)C)NC(=O)[C@H](CCCN)NC(=O)[C@H](CCCNC(N)=O)NC(=O)[C@H](Cc3ccc(-c4ccccc4)cc3)NC(=O)[C@H](C(C)C)NC2=O)c1 [Compound 2784] ({CH2CO}-[Dap]Y(Carboxymethyl)D[Phe(3-Me)]V[Bip][Cit][Orn][dL][Dab][Cha]VTC[Aib]E[Aun]-OH; thioether N-14)
16.1 nM | CC(C)C[C@H]1NC(=O)[C@H](CCCN)NC(=O)[C@H](C(C)C)NC(=O)[C@H](Cc2ccc(-c3ccccc3)cc2)NC(=O)[C@H](C(C)C)NC(=O)[C@H](Cc2c[nH]c3ccccc23)NC(=O)[C@H](CC(=O)O)NC(=O)[C@H](Cc2ccc(OCC(=O)O)cc2)NC(=O)[C@H](Cc2c[nH]cn2)NC(=O)CSC[C@@H](C(=O)N[C@H](C)C(=O)N[C@@H](CCC(=O)O)C(=O)NCCCCCCCCCCC(=O)O)NC(=O)[C@H]([C@@H](C)O)NC(=O)[C@H](C(C)C)NC(=O)[C@H](CC2CCCCC2)NC(=O)[C@H](CCN)NC1=O [Compound 2785] ({CH2CO}-HY(Carboxymethyl)DWV[Bip]V[Orn][dL][Dab][Cha]VTC[dA]E[Aun]-OH; thioether N-14)
28.3 nM | CNC[C@H](NC(=O)[C@@H]1CSCC(=O)N[C@@H](CN)C(=O)N[C@@H](Cc2ccc(OCC(=O)O)cc2)C(=O)N[C@@H](CC(=O)O)C(=O)N[C@@H](Cc2cccc(C)c2)C(=O)N[C@@H](C(C)C)C(=O)N[C@@H](Cc2ccc(-c3ccccc3)cc2)C(=O)N[C@@H](CCCNC(N)=O)C(=O)N[C@@H](CCCN)C(=O)N[C@H](CC(C)C)C(=O)N[C@@H](CCN)C(=O)N[C@@H](CC2CCCCC2)C(=O)N[C@@H](C(C)C)C(=O)N[C@@H]([C@@H](C)O)C(=O)N1)C(=O)NCCCCCCCCCCC(=O)O [Compound 2787] ({CH2CO}-[Dap]Y(Carboxymethyl)D[Phe(3-Me)]V[Bip][Cit][Orn][dL][Dab][Cha]VTC[Dap(Me)][Aun]-OH; thioether N-14)
22.3 nM | CC(C)C[C@H]1NC(=O)[C@H](CCCN)NC(=O)[C@H](C(C)C)NC(=O)[C@H](Cc2ccc(-c3ccccc3)cc2)NC(=O)[C@H](C(C)C)NC(=O)[C@H](Cc2c[nH]c3ccccc23)NC(=O)[C@H](CC(=O)O)NC(=O)[C@H](Cc2ccc(OCC(=O)O)cc2)NC(=O)[C@H](CN)NC(=O)CSC[C@@H](C(=O)N[C@@H](CCN)C(=O)NCCCCCCCCCCC(=O)O)NC(=O)[C@H](CCC(=O)O)NC(=O)[C@H](C(C)C)NC(=O)[C@H](CC2CCCCC2)NC(=O)[C@H](Cc2c[nH]cn2)NC1=O [Compound 2788] ({CH2CO}-[Dap]Y(Carboxymethyl)DWV[Bip]V[Orn][dL]H[Cha]VEC[Dab][Aun]-OH; thioether N-14)
23.8 nM | Cc1cccc(C[C@@H]2NC(=O)[C@H](CC(=O)O)NC(=O)[C@H](Cc3ccc(O)cc3)NC(=O)[C@H](CC(N)=O)NC(=O)CSC[C@@H](C(=O)N[C@@H](CCN)C(=O)NCCCCCCCCCCC(=O)O)NC(=O)[C@H](CCC(N)=O)NC(=O)[C@H](C(C)C)NC(=O)[C@H](CC(C)C)NC(=O)[C@H](CCN)NC(=O)[C@@H](CC(C)C)NC(=O)[C@H](CCCN)NC(=O)[C@H](CCCNC(N)=O)NC(=O)[C@H](Cc3ccc(-c4ccccc4)cc3)NC(=O)[C@H](C(C)C)NC2=O)c1 [Compound 2789] ({CH2CO}-NYD[Phe(3-Me)]V[Bip][Cit][Orn][dL][Dab]LVQC[Dab][Aun]-OH; thioether N-14)
71.1 nM | Cc1cccc(C[C@@H]2NC(=O)[C@H](CC(=O)O)NC(=O)[C@H](Cc3ccc(O)cc3)NC(=O)[C@H](CC(N)=O)NC(=O)CSC[C@@H](C(=O)N[C@@H](CCCN)C(=O)NCCCCCCCCCCC(=O)O)NC(=O)[C@H](CCC(N)=O)NC(=O)[C@H](C(C)C)NC(=O)[C@H](CC(C)C)NC(=O)[C@H](CCN)NC(=O)[C@@H](CC(C)C)NC(=O)[C@H](CCCN)NC(=O)[C@H](CCCNC(N)=O)NC(=O)[C@H](Cc3ccc(-c4ccccc4)cc3)NC(=O)[C@H](C(C)C)NC2=O)c1 [Compound 2790] ({CH2CO}-NYD[Phe(3-Me)]V[Bip][Cit][Orn][dL][Dab]LVQC[Orn][Aun]-OH; thioether N-14)
36.7 nM | Cc1cccc(C[C@@H]2NC(=O)[C@H](CC(=O)O)NC(=O)[C@H](Cc3ccc(O)cc3)NC(=O)[C@H](CC(N)=O)NC(=O)CSC[C@@H](C(=O)N[C@@H](CCN)C(=O)NCCCCCCCCCCC(=O)O)NC(=O)[C@@H](CCC(N)=O)NC(=O)[C@H](C(C)C)NC(=O)[C@H](CC(C)C)NC(=O)[C@H](CCN)NC(=O)[C@@H](CC(C)C)NC(=O)[C@H](CCCN)NC(=O)[C@H](CCCNC(N)=O)NC(=O)[C@H](Cc3ccc(-c4ccccc4)cc3)NC(=O)[C@H](C(C)C)NC2=O)c1 [Compound 2791] ({CH2CO}-NYD[Phe(3-Me)]V[Bip][Cit][Orn][dL][Dab]LV[dQ]C[Dab][Aun]-OH; thioether N-14)
75.7 nM | Cc1cccc(C[C@@H]2NC(=O)[C@H](CC(=O)O)NC(=O)[C@H](Cc3ccc(O)cc3)NC(=O)[C@H](CC(N)=O)NC(=O)CSC[C@@H](C(=O)N[C@@H](CCCN)C(=O)NCCCCCCCCCCC(=O)O)NC(=O)[C@@H](CCC(N)=O)NC(=O)[C@H](C(C)C)NC(=O)[C@H](CC(C)C)NC(=O)[C@H](CCN)NC(=O)[C@@H](CC(C)C)NC(=O)[C@H](CCCN)NC(=O)[C@H](CCCNC(N)=O)NC(=O)[C@H](Cc3ccc(-c4ccccc4)cc3)NC(=O)[C@H](C(C)C)NC2=O)c1 [Compound 2792] ({CH2CO}-NYD[Phe(3-Me)]V[Bip][Cit][Orn][dL][Dab]LV[dQ]C[Orn][Aun]-OH; thioether N-14)
